What was measured:
ATR kinase = ATR kinase (Homo sapiens (Human), UniProt Q13535); experiment: Screening for in vitro inhibitory activity against ATR kinase; assay type: biochemical; details: 10 μM ATP, 0.1 μM U Light-poly GT substrate
Description: A 50 ng/μL ATR stock solution was diluted with a kinase buffer (50 mM HEPES, 10 mM MgCl2, 2 mM DTT, 1 mM EGTA, 0.01% Tween 20), and 6 μL of 1.67×, 0.0835 ng/μL working solution was added to each well (final concentration: 0.05 ng/μL). Different compounds dissolved in DMSO were added to wells using a nanoliter pipettor, such that the final concentrations of the compounds were 1000 nM-0.24 nM and the concentrations in positive wells were 100 nM-0.024 nM (4-fold gradient, 7 concentrations in total). Meanwhile, a blank control well (containing no enzyme) and a negative control well (containing enzyme, with the vehicle DMSO added) were set. After the enzyme had reacted with the compound or vehicle for 30 min, a 5×, 50 μM ATP (final concentration: 10 μM) prepared with the kinase buffer and a 5×, 0.5 μM substrate (final concentration: 0.1 μM, U Light-poly GT) were 1:1 mixed, and the mixture was added to wells at 4 μL/well. After the plate was sealed with a sealing film and the plate was incubated at room temperature for 2 h, 5 μL of 4×, 40 mM EDTA (final concentration: 10 mM) was added to each well. After 5 min of incubation at room temperature, 5 μL of a 4×, 8 nM assay reagent (final concentration: 2 nM, Ep-anti-phospho-tyrosine antibody) was added to each well. The plate was incubated at room temperature for 1 h. Plate reading was performed on a PE instrument (excitation: 320 or 340 nm; emission: 665 nm), and four-parameter fitting and IC50 calculations were performed. The results are shown in Table 1, where A represents IC50<50 nM.

TMD-8 cells = experiment: Assay for inhibitory activity on TMD-8 cell proliferation (CCK-8); assay type: cell-based
Description: TMD-8 cells in a good growth state were collected into a centrifuge tube, adjusted to a cell density of 4×10^4 cells/mL, and inoculated onto a 96-well plate (100 μL/well), and the plate was incubated overnight in a cell incubator. Compounds were added using a nanoliter pipettor such that the final concentrations of the compounds were 10,000 nM-4.57 nM (the addition was performed in duplicate). Meanwhile, a control was set. After another 72 h of incubation in the cell incubator, the assay reagent CCK-8 (manufacturer: Dojindo Laboratories; 10 μL/well) was added. After 4 h of incubation in the cell incubator, absorbance was measured at 450 nm on an Envision microplate reader. A four-parameter analysis was performed, a dose-response curve was fit, and IC50 was calculated. The results are shown in Table 2, where A represents IC50≤200 nM.

[1] = In vitro liver microsomal stability; assay type: in vitro ADME; details: human liver microsomes, NADPH, 37° C.
Description: A 200-μL final incubation system contained 20 μL of liver microsomes (protein concentration: 5 mg/mL), 20 μL of NADPH+MgCl2, 2 μL of a substrate, and 158 μL of PBS buffer. The proportion of the organic solvent was 1%. The assay was performed in duplicate (0.2 mL each) for each species. A 180-μL mixture of substrate and enzyme was prepared in each tube. After the mixture and NADPH were pre-incubated at 37° C. for 5 min, 20 μL of NADPH+MgCl2 was added and mixed. 50-μL samples were taken at 0, 15 and 60 min, and the reactions were stopped using ice-cold acetonitrile containing an internal standard.
50-μL incubated samples were taken, and 300 μL of internal standard-containing acetonitrile was added for precipitation. After 5 min of vortexing and shaking, centrifugation (13,000 rpm, 20° C.) was performed for 10 min. 80 μL of the supernatant was added to a 96-well plate and diluted with 80 μL of ultrapure water, and 1 μL of the dilution was injected for LC-MS/MS analysis.

[2] = Pharmacokinetic evaluation of compounds in mice; assay type: in vivo; details: ICR mice
Description: ICR mice, weighing 18-22 g, were randomized into 4 groups of 9 after 3-5 days of acclimatization, and were administered intragastrically (IG) a test compound at a dose of 10 mg/kg and intravenously (IV) a test compound at a dose of 1 mg/kg.
The test animals (ICR mice) were fasted for 12 h before the administration and given food 4 h after the administration, and they were given ad libitum access to water before, during and after the experiment.
Orbital blood samples of about 0.1 mL were collected at 15 min, 30 min, 1 h, 2 h, 3 h, 4 h, 6 h, 8 h, 10 h and 24 h after the intragastric administration. Orbital blood samples of about 0.1 mL were collected at 5 min, 10 min, 30 min, 1 h, 2 h, 4 h, 6 h, 8 h, 10 h and 24 h after the intravenous administration. The blood sample collection was performed at 3-4 time points for each mouse, 3 mice/per time point. The collected whole blood was placed in EDTA-K2-containing centrifuge tubes and stored at 4° C., and, within 1 h, was centrifuged at 4° C. at 4000 rpm for 10 min to separate plasma. All plasma samples were collected and immediately stored at −20° C. for testing. 30 μL of a plasma sample to be tested and a standard-curve sample were collected, and 300 μL of an acetonitrile solution containing an internal standard (20 ng/mL diazepam) was added and well mixed by 5 min of shaking. The mixture was centrifuged at 13,000 rpm for 10 min, and 80 µL of the supernatant was collected and diluted with 80 μL of ultrapure water. After well mixing, 2 μL of the dilution was collected for liquid chromatography-mass spectrometry analysis, and pharmacokinetic parameters were calculated.

[3] = Homo sapiens, TMD8, 72 h incubation
[4] = plasma, IG 10 mg/kg / IV 1 mg/kg study

Sequence of ATR kinase (Q13535 whole entry): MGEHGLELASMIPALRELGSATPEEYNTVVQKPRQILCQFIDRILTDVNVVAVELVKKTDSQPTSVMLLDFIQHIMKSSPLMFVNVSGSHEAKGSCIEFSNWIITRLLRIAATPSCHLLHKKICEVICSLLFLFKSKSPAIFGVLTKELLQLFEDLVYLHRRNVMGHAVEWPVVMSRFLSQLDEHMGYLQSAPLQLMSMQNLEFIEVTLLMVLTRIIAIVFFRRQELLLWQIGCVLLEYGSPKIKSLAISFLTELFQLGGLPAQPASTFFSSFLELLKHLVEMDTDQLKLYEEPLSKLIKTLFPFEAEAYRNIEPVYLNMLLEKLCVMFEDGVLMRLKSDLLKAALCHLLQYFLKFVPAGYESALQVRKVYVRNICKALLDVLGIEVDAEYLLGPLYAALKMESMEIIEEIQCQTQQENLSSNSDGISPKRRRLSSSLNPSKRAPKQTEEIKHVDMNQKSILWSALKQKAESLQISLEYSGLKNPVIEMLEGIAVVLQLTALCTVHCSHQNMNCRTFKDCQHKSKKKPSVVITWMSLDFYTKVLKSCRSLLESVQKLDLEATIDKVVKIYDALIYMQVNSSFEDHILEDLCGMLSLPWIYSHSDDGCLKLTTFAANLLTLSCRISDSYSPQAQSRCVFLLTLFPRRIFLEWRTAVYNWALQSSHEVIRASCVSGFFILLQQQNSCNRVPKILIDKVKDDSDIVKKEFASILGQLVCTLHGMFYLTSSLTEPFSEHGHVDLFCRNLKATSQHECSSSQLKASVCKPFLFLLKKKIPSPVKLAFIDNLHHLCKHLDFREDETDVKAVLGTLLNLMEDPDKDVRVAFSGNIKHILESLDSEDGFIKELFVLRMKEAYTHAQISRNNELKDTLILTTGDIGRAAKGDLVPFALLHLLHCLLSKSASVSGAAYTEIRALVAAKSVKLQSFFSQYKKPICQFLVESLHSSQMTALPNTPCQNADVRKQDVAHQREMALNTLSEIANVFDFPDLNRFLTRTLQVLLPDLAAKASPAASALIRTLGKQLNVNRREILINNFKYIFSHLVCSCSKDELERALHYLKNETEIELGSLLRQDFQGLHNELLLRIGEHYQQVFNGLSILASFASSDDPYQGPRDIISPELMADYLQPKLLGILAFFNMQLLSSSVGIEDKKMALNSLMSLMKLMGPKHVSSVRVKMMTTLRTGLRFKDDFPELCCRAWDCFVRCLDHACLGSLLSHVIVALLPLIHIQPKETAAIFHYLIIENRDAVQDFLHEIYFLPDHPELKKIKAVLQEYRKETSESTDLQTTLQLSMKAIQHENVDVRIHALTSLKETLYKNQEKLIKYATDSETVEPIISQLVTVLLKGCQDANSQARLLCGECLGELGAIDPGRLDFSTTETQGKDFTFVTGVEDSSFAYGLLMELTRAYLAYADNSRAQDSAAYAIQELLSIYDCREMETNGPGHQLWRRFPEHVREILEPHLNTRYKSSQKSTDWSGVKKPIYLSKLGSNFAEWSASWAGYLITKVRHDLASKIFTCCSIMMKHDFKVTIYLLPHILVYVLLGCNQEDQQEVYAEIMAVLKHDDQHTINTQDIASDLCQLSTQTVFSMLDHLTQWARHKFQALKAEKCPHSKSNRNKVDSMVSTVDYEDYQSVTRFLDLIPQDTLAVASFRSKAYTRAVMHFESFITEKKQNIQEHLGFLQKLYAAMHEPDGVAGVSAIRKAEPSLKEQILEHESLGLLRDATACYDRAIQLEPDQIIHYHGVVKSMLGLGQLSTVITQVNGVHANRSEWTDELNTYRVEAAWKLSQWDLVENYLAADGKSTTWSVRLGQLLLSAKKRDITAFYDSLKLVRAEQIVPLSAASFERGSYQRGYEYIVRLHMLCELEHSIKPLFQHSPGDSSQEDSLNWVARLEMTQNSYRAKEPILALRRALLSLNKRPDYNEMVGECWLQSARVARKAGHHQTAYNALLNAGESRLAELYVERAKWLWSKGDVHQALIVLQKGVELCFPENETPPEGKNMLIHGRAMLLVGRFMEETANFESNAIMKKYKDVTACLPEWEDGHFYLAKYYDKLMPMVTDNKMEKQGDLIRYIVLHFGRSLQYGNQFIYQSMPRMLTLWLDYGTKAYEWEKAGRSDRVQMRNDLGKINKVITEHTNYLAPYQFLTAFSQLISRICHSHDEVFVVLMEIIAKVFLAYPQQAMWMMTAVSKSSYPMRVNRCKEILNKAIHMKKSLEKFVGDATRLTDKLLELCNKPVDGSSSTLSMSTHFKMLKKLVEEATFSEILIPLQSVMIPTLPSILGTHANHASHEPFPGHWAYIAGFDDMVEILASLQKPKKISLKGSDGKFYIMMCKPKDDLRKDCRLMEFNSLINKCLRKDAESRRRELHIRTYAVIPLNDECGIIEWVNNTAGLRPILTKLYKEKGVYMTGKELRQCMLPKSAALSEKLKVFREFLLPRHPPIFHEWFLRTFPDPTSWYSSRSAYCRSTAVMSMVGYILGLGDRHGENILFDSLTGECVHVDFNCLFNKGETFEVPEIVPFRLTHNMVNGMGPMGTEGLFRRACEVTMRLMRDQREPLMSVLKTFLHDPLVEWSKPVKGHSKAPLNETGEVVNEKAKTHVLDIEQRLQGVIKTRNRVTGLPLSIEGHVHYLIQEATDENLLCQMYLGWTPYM
Sequence of ATR kinase (Q8WXE1 whole entry partner): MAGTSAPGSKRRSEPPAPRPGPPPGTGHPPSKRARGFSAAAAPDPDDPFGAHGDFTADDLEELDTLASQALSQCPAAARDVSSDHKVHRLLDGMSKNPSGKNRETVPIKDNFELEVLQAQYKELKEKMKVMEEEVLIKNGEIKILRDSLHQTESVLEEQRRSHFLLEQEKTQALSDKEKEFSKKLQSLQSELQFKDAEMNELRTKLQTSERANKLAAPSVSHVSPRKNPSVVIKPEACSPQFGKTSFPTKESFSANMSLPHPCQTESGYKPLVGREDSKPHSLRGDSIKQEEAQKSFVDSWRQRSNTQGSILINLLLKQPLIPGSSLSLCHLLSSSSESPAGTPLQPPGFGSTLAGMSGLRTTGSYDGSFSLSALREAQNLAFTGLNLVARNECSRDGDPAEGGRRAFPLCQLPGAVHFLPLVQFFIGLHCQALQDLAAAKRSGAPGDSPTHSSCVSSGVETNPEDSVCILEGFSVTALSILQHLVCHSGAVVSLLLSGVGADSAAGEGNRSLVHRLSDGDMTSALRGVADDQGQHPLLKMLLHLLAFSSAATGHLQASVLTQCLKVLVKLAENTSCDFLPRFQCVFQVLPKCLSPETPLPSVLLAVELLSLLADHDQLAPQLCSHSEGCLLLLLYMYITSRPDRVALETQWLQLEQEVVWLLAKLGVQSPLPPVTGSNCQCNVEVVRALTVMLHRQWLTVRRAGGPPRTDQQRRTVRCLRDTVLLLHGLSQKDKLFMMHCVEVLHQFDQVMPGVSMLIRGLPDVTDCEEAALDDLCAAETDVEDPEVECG

Q: With `C[C@@H]1COCCN1c1cc(N=[S@@](C)(=O)c2ccc(F)cc2)c2cnn(-c3ccn[nH]3)c2n1` (single isomer, unassigned) [Compound 14-A] as the molecule, how does the IC50 (ATR kinase) read?
A: The IC50 was under 50 nM.

Q: For `C[C@@H]1COCCN1c1cc(N=[S@@](C)(=O)C2CCCC2)c2cnn(-c3ccn[nH]3)c2n1` (single isomer, unassigned) [Compound 15-A], which IC50 (TMD-8 cells; [3]) is on record?
A: The IC50 was at most 200 nM.

Q: What about the IC50 (ATR kinase) of the same molecule?
A: Its IC50 is under 50 nM.

Q: For `C[C@@H]1COCCN1c1cc(N=[S@](C)(=O)C2CCC(F)(F)CC2)c2cnn(-c3ccn[nH]3)c2n1` (single isomer, unassigned) [Compound 16-A], which IC50 (ATR kinase) is on record?
A: The IC50 was under 50 nM.

Q: With `C[C@@H]1COCCN1c1cc(N=S(C)(C)=O)c2cnn(-c3ccn[nH]3)c2n1` [Compound 1] as the molecule, how does the IC50 (TMD-8 cells; [3]) read?
A: The IC50 was at most 200 nM.

Q: And the “Human liver microsome (Residual % at 60 min)” value [1]?
A: The value was 102.05%.

Q: Which results are given for `CCS(=O)(CC)=Nc1cc(N2CCOC[C@H]2C)nc2c1cnn2-c1ccn[nH]1` [Compound 2]?
A: IC50 (TMD-8 cells; [3]): ≤ 200 nM; Human liver microsome (Residual % at 60 min) [1]: 85.89%

Q: Which results are given for `C[C@@H]1COCCN1c1cc(N=S2(=O)CCC2)c2cnn(-c3ccn[nH]3)c2n1` [Compound 3]?
A: IC50 (TMD-8 cells; [3]): ≤ 200 nM; Human liver microsome (Residual % at 60 min) [1]: 106.47%

Q: With `C[C@@H]1COCCN1c1cc(N=S2(=O)CCCC2)c2cnn(-c3ccn[nH]3)c2n1` [Compound 4] as the molecule, how does the IC50 (TMD-8 cells; [3]) read?
A: Its IC50 is at most 200 nM.

Q: And the “Human liver microsome (Residual % at 60 min)” value [1]?
A: Its value is 96.49%.

Q: With `C[C@@H]1COCCN1c1cc(N=S2(=O)CCCCC2)c2cnn(-c3ccn[nH]3)c2n1` [Compound 5] as the molecule, how does the IC50 (TMD-8 cells; [3]) read?
A: The IC50 was at most 200 nM.

Q: With `C[C@@H]1COCCN1c1cc(N=S2(=O)CCOCC2)c2cnn(-c3ccn[nH]3)c2n1` [Compound 6] as the molecule, how does the “Human liver microsome (Residual % at 60 min)” value [1] read?
A: Its value is 94.62%.

Q: For `C[C@@H]1COCCN1c1cc(N=[S@](C)(=O)C2CC2)c2cnn(-c3ccn[nH]3)c2n1` [Compound 10-A], which “Human liver microsome (Residual % at 60 min)” value [1] is on record?
A: Its value is 95.39%.

Q: What about the “IG half-life t1/2” value ([2]; intragastric 10 mg/kg) of the same molecule?
A: The value was 1.3 h.

Q: What about the “Area under plasma concentration-time curve AUC0-last” value [2, 4] of the same molecule?
A: The value was 13943 ng·h/mL.

Q: And the “Peak concentration Cmax” value [2, 4]?
A: The value was 4888 ng/mL.

Q: And the “Tissue distribution Vd” value ([2]; IG 10 mg/kg / IV 1 mg/kg study)?
A: Its value is 0.68 L/kg.

Q: And the “Absolute bioavailability F” value ([2]; IG 10 mg/kg vs IV 1 mg/kg)?
A: The value was 66%.

Q: What about the IC50 (ATR kinase) of the same molecule?
A: The IC50 was under 50 nM.

Q: With `Cc1cc(-n2ncc3c(N=S(C)(C)=O)cc(N4CCOC[C@H]4C)nc32)[nH]n1` [Compound 13] as the molecule, how does the “Human liver microsome (Residual % at 60 min)” value [1] read?
A: The value was 108.36%.

Q: What about the IC50 (ATR kinase) of the same molecule?
A: Its IC50 is under 50 nM.

Q: For `C[C@@H]1COCCN1c1cc(N=[S@@](C)(=O)C2CCCC2)c2cnn(-c3ccn[nH]3)c2n1` [Compound 15-B], which IC50 (TMD-8 cells; [3]) is on record?
A: The IC50 was at most 200 nM.

Q: Which IC50 (TMD-8 cells; [3]) does the source give for `C[C@@H]1COCCN1c1cc(N=S(C)(=O)C(C)(C)C)c2cnn(-c3ccn[nH]3)c2n1` (some centres unmarked) [Compound 17] here?
A: Its IC50 is at most 200 nM.

Q: For `Cc1cc(-n2ncc3c(N=[S@@](C)(=O)C4CC4)cc(N4CCOC[C@H]4C)nc32)[nH]n1` [Compound 19-A], which IC50 (TMD-8 cells; 72 h incubation) is on record?
A: Its IC50 is at most 200 nM.

Q: What about the “IG half-life t1/2” value ([2]; intragastric 10 mg/kg) of the same molecule?
A: Its value is 1.16 h.

Q: What about the “Area under plasma concentration-time curve AUC0-last” value [2, 4] of the same molecule?
A: Its value is 5403 ng·h/mL.

Q: What about the “Peak concentration Cmax” value [2, 4] of the same molecule?
A: The value was 2948 ng/mL.

Q: And the “Tissue distribution Vd” value ([2]; IG 10 mg/kg / IV 1 mg/kg study)?
A: Its value is 4.58 L/kg.

Q: What about the “Absolute bioavailability F” value ([2]; IG 10 mg/kg vs IV 1 mg/kg) of the same molecule?
A: Its value is 88%.

Q: And the IC50 (ATR kinase)?
A: The IC50 was under 50 nM.

Q: With `Cc1nn(-c2ccn[nH]2)c2nc(N3CCOC[C@H]3C)cc(N=S(C)(C)=O)c12` [Compound 20] as the molecule, how does the IC50 (TMD-8 cells; [3]) read?
A: Its IC50 is at most 200 nM.

Q: What about the bioavailability ([2]; mouse, plasma, oral, IG 10 mg/kg vs IV 1 mg/kg, read-out: Absolute bioavailability F) of the same molecule?
A: The bioavailability was 74%.

Q: What about the half-life ([2]; mouse, plasma, po, intragastric 10 mg/kg, read-out: IG half-life t1/2 (converted)) of the same molecule?
A: Its half-life is 1.93 h.

Q: What about the Vd ([2]; mouse, plasma, IG 10 mg/kg / IV 1 mg/kg study, read-out: Tissue distribution Vd) of the same molecule?
A: Its Vd is 1.04 L/kg.

Q: And the AUC(0-t) ([2]; mouse, plasma, IG 10 mg/kg / IV 1 mg/kg study, read-out: Area under plasma concentration-time curve AUC0-last)?
A: The AUC(0-t) was 14600 ng·h/mL.

Q: And the Cmax ([2]; mouse, plasma, IG 10 mg/kg / IV 1 mg/kg study, read-out: Peak concentration Cmax)?
A: Its Cmax is 6520 ng/mL.

Q: For `CC(C)Cc1nn(-c2cc[nH]n2)c2nc(N3CCOC[C@H]3C)cc(N=S(C)(C)=O)c12` [Compound 21], which IC50 (TMD-8 cells; [3]) is on record?
A: Its IC50 is at most 200 nM.

Q: With `C[C@@H]1COCCN1c1cc(N=S(C)(C)=O)c2c(C3CC3)nn(-c3ccn[nH]3)c2n1` [Compound 22] as the molecule, how does the IC50 (TMD-8 cells; [3]) read?
A: Its IC50 is at most 200 nM.

Q: With `C[C@@H]1COCCN1c1cc(N=S(C)(C)=O)c2c(C(F)(F)F)nn(-c3ccn[nH]3)c2n1` [Compound 23] as the molecule, how does the IC50 (TMD-8 cells; [3]) read?
A: Its IC50 is at most 200 nM.

Q: With `C[C@@H]1COCCN1c1cc(N=S(C)(C)=O)c2c(CCC(F)(F)F)nn(-c3ccn[nH]3)c2n1` [Compound 24] as the molecule, how does the IC50 (TMD-8 cells; [3]) read?
A: The IC50 was at most 200 nM.

Q: Which IC50 (TMD-8 cells; [3]) does the source give for `C[C@@H]1COCCN1c1cc(N=S(C)(C)=O)c2c(C(C)(C)C)nn(-c3cc[nH]n3)c2n1` [Compound 25] here?
A: Its IC50 is at most 200 nM.

Q: With `C[C@@H]1COCCN1c1cc(N=S(C)(C)=O)c2c(C#CC3CC3)nn(-c3cc[nH]n3)c2n1` [Compound 26] as the molecule, how does the IC50 (TMD-8 cells; [3]) read?
A: The IC50 was at most 200 nM.
